Assay results as given in ChEMBL document CHEMBL5252515, “Discovery of 6-Amino-2-{[(1S)-1-methylbutyl]oxy}-9-[5-(1-piperidinyl)pentyl]-7,9-dihydro-8H-purin-8-one (GSK2245035), a Highly Potent and Selective Intranasal Toll-Like Receptor 7 Agonist for the Treatment of Asthma” (J Med Chem, 2016).
Calls of active or inactive are those of the source. The rule behind the calls is not given here.

Tests used:
Toll-like receptor 7 [1] = molecular target: T1, Toll-like receptor 7 (Homo sapiens, UniProt Q9NYK1); assay: Agonist activity at TLR7 in human PBMC assessed as TNF-alpha production after 24 hrs by electrochemiluminescence assay; assay type: cell-based
T1 sequence (Q9NYK1 whole entry): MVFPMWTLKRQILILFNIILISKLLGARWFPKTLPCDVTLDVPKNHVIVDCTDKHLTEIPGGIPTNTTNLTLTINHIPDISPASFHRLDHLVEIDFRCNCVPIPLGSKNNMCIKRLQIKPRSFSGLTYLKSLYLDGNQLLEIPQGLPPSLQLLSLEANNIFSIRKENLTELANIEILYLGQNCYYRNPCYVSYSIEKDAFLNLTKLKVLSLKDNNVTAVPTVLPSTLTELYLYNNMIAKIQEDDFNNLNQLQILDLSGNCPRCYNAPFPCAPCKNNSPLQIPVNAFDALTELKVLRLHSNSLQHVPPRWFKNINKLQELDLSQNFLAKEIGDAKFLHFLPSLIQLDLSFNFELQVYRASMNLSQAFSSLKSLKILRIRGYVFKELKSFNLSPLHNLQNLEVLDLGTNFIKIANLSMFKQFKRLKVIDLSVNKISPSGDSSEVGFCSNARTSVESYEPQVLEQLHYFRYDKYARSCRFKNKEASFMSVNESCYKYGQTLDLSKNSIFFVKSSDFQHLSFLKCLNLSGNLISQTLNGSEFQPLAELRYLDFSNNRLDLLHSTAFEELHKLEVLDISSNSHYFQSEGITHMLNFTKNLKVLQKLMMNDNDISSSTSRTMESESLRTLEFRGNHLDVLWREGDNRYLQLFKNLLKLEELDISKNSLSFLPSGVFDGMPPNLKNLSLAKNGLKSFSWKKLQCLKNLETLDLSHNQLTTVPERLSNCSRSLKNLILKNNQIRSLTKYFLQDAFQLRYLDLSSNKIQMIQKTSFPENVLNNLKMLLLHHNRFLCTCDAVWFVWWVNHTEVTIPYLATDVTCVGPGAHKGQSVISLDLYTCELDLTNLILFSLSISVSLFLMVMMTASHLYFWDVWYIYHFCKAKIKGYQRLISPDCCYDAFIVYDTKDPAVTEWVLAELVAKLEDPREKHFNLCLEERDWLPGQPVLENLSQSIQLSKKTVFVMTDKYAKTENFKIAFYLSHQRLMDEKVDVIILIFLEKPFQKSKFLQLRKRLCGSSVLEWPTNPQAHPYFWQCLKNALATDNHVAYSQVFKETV

Toll-like receptor 7 [2] = molecular target: T1, Toll-like receptor 7; assay: Agonist activity at TLR7 in human whole blood assessed as induction of TNFalpha production after 20 hrs by electrochemiluminescence assay; assay type: tissue-based
[3] = Toxicity in mouse assessed as dermal irritancy at 1000 ug/ml administered intranasally after 4 hrs; conditions: in vivo, inhaled_or_intranasal, dose 1000 µg/ml
[4] = Toxicity in monkey assessed as NOAEL after 8 weeks; parameters: species or system Macaca mulatta; conditions: rhesus monkey, in vivo, 1344 h
[5] = molecular target: T2, Toll-like receptor 7 (Macaca fascicularis) (UniProt B3Y652); assay: In vivo target occupancy at TLR7 in cynomolgus monkey assessed as fold increase in CCL8 mRNA expression in nasal scrape at 3 ng/kg administered intranasally incubated for 24 hrs by TaqMan analysis (reference value: 1); assay type: functional
T2 sequence (whole entry): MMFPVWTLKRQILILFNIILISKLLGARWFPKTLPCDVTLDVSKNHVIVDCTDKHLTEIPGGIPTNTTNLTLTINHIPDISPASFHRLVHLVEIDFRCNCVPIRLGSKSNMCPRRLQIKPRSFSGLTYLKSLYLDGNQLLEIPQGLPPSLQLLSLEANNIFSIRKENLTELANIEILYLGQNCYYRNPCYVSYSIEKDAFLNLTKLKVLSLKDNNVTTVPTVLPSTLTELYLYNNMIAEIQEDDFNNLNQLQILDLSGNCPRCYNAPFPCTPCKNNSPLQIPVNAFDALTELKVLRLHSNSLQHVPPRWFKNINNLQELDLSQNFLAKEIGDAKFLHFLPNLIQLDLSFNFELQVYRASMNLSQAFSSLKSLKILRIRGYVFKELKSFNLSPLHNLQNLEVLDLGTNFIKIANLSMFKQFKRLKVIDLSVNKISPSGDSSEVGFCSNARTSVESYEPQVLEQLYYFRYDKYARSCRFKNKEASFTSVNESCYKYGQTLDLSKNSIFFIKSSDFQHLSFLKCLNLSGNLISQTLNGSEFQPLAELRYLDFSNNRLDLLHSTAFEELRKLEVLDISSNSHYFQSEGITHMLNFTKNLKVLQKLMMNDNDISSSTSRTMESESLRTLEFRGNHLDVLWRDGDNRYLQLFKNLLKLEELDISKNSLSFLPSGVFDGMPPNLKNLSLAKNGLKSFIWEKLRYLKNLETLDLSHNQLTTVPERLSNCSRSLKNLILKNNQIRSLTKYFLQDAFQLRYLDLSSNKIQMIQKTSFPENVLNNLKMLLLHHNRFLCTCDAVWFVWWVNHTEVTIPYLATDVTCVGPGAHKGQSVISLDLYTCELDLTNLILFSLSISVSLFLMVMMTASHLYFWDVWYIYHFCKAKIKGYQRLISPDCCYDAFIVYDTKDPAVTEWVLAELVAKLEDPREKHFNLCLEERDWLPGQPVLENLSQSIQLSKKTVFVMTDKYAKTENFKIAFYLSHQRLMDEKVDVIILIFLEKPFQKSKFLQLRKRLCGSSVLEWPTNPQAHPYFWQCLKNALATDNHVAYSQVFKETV

Mus musculus = assay: Increase in IFN-alpha level in BALB/c mouse serum at 0.3 mg/kg, administered intranasally after 6 hrs by ELISA; assay type: functional, organism-based
[6] = Bioavailability in mouse after intranasal administration; assay type: ADME, organism-based; conditions: in vivo, inhaled or intranasal
[7] = Tmax in rat after intranasal administration; assay type: ADME; conditions: in vivo, inhaled or intranasal
Cynomolgus monkey = assay: Increase in IP-10 level in cynomolgus monkey serum at 30 ng/kg, administered intranasally after 6 hrs; assay type: functional, organism-based; conditions: Macaca fascicularis
[8] = molecular target: T2, Toll-like receptor 7 (Macaca fascicularis); assay: In vivo target occupancy at TLR7 in cynomolgus monkey assessed as fold increase in OAS2 mRNA expression in nasal scrape at 30 ng/kg administered intranasally incubated for 24 hrs by TaqMan analysis (reference value: 1); assay type: functional
[9] = molecular target: T2, Toll-like receptor 7 (Macaca fascicularis); assay: In vivo target occupancy at TLR7 in cynomolgus monkey assessed as fold increase in CCL8 mRNA expression in nasal scrape at 30 ng/kg administered intranasally incubated for 24 hrs by TaqMan analysis (reference value: 1); assay type: functional
Toll-like receptor 7 [10] = molecular target: T3, Toll-like receptor 7 (Macaca fascicularis, UniProt B3Y652); assay: Agonist activity at TLR7 in cynomolgus monkey whole blood assessed as induction of IFNalpha production; assay type: tissue-based
T3 sequence (B3Y652 whole entry): T2 sequence (whole entry)

PBMC = assay: Immunomodulatory activity in human PBMC assessed as reduction in house dust mite induced IL-13 level after 6 days; assay type: functional, cell-based; conditions: dose 0.01-10000 nM, time 6.0 day
[11] = Tmax in cynomolgus monkey after intranasal administration; assay type: ADME, Macaca fascicularis; conditions: in vivo, inhaled or intranasal
[12] = molecular target: T2, Toll-like receptor 7 (Macaca fascicularis); assay: In vivo target occupancy at TLR7 in cynomolgus monkey assessed as fold increase in GBP1 mRNA expression in nasal scrape at 3 ng/kg administered intranasally incubated for 24 hrs by TaqMan analysis (reference value: 2.4); assay type: functional

EC50 (Toll-like receptor 7 [1]): 316 nM
EC50 (Toll-like receptor 7 [2]): 10000 nM
fold change (FC) [5]: 3970
bioavailability [6]: 42%
Tmax [7]: ≤ 5 min
fold change (FC) [8]: 180
fold change (FC) [9]: 19300
EC50 (Toll-like receptor 7 [10]): 79.4 nM
Tmax [11]: ≤ 5 min
fold change (FC) [12]: 68.5
Structure (SMILES): CCC[C@H](C)Oc1nc(N)c2[nH]c(=O)n(CCCCCN3CCCCC3)c2n1 [GSK-2245035]
Activity [3]: Non-Toxic
NOAEL [4]: 0.0359 µg/kg
Activity (Mus musculus): inactive
Activity (Cynomolgus monkey): Active
Activity (PBMC): Dose-Dependent Effect
